In general, IC50 refers to the point on the concentration scale where inhibition reaches its midpoint.

Common to all, as to format: binding
The target of one experiment is TEAD4 (Homo sapiens, UniProt Q15561). The experiment is described as follows: Lipid HTRF TEAD4.
Experiment [1] addresses T1, TEAD2 (Homo sapiens, UniProt Q15562). The experiment is described as follows: Lipid HTRF TEAD2. On the technique in general: In TR-FRET formats the signal depends on donor and acceptor labels being close together.
Experiment [2] has as its target T2, TEAD3 (Homo sapiens, UniProt Q99594). The experiment is described as follows: Lipid HTRF TEAD3.
In the next experiment the target is TEAD1 (Homo sapiens, UniProt P28347). Kind of experiment: Lipid HTRF TEAD1.
Sequence of TEAD1 (P28347 whole entry, species assumed): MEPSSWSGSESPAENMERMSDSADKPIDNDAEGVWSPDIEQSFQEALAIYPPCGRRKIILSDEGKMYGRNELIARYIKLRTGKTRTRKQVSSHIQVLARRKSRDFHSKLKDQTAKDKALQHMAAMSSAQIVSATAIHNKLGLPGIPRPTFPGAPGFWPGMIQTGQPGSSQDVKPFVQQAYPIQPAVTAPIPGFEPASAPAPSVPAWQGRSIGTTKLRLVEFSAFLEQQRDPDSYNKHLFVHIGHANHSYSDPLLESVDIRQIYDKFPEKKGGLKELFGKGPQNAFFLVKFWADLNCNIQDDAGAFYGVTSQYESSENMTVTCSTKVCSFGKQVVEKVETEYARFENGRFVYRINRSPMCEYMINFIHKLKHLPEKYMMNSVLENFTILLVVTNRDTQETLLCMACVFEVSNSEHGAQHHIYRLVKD
The target of experiment [3] is T2, TEAD3. Kind of experiment: TEAD lipid assay (Lipid FP, Bodipy-C16 probe displacement). To be noted: fluorescence polarization, His-tagged TEAD, 60 minutes incubation. As for the experimental part:
(§1) A TEAD lipid assay was done according to the following method. His-tagged TEAD proteins were pre-incubated with a Bodipy-C16 FP probe (Life Technologies Cat #D3821) for 30 minutes at room temperature to pre-form TEAD-probe complex. […] Duplicate 10 point dose response curves were generated for each test compound. The potency of compounds as TEAD lipid pocket binders was determined by IC50 value generated using a non-linear 4 parameter curve fit.

Experiment [4] has as its target T1, TEAD2. Described as above. To be noted: fluorescence polarization, His-tagged TEAD, 60 minutes incubation. Here is the method:
as §1

T1 sequence (Q15562 whole entry, species assumed): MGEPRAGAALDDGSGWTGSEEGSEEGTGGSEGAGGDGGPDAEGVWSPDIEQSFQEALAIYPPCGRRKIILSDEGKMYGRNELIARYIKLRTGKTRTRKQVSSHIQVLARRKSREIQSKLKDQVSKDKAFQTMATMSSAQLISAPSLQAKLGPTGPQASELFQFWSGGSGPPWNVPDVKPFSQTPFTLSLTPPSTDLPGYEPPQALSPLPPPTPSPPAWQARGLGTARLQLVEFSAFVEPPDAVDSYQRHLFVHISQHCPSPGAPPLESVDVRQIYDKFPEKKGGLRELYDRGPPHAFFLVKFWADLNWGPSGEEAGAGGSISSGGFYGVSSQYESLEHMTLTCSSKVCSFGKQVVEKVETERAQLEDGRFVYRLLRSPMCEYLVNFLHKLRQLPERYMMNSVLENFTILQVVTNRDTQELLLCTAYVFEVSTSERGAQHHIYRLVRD
T2 sequence (Q99594 whole entry, species assumed): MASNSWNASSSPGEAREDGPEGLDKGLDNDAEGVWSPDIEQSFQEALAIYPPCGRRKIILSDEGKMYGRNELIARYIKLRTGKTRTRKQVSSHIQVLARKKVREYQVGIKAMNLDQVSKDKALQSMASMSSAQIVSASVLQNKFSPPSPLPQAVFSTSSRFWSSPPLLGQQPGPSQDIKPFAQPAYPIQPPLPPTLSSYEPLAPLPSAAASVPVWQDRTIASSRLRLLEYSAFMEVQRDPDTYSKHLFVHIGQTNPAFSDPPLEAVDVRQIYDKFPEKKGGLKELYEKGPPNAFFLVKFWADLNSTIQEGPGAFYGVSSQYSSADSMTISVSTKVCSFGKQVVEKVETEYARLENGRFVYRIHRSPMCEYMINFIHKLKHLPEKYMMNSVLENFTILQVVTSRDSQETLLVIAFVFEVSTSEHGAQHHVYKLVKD
Sequence of TEAD4 (Q15561 whole entry, species assumed): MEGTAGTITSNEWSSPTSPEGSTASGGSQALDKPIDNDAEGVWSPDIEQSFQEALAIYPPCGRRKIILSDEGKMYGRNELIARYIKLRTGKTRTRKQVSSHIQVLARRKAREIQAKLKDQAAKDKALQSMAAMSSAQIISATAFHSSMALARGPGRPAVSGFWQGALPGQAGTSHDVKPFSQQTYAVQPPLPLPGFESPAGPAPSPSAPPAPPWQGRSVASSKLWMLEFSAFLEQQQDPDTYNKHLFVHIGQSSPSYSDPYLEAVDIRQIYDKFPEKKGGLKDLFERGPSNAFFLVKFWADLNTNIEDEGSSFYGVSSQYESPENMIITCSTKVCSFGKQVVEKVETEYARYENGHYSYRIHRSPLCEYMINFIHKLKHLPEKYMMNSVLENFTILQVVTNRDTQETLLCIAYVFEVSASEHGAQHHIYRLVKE

As for `CNC(=O)Cc1cccc(CNC(=O)c2cnc(OC)c(/C=C/[C@H]3CC[C@H](C(F)(F)F)CC3)c2)c1` [Compound 56B, 6-methoxy-N-(3-(2-(methylamino)-2-oxoethyl)benzyl)-5-((E)-2-(trans-4-(trifluoromethyl)cyclohexyl)vinyl) nicotinamide], the 50% inhibitory concentration (IC50) on TEAD4 was 39 nM; against TEAD2 [1], 31 nM; against TEAD3 [2], 2090 nM; against TEAD1, 193 nM.

Consider `CNC(=O)Cc1cccc(CNC(=O)c2cc(/C=C/[C@H]3CC[C@@H](C(F)(F)F)CC3)c(OC)cn2)c1` [Compound 57A, 5-Methoxy-N-(3-(2-(methylamino)-2-oxoethyl)benzyl)-4-((E)-2-(cis-4-(trifluoromethyl)cyclohexyl)vinyl) picolinamide], for which the IC50 on TEAD4 was determined as 131 nM; on TEAD2 [1], 46 nM; against TEAD3 [2], 867 nM; against TEAD1, 389 nM.

Turning to `CNC(=O)Cc1cccc(CNC(=O)c2cnc(OC)c(/C=C/[C@H]3CC[C@@H](C(F)(F)F)CC3)c2)c1` [Compound 56A, 6-Methoxy-N-(3-(2-(methylamino)-2-oxoethyl)benzyl)-5-((E)-2-(cis-4-(trifluoromethyl)cyclohexyl)vinyl)nicotinamide], the IC50 against TEAD4 was found to be 355 nM; at TEAD2 [1] it was 79 nM; against TEAD3 [2], 15200 nM; against TEAD1 it was 708 nM.

For the molecule `COc1ccc(NS(C)(=O)=O)cc1[C@H]1C[C@H](c2ccc(Cl)cc2)C1` (single isomer, unassigned) [Compound 7A], the concentration for half-maximal inhibition (IC50) came out at 1700 nM on TEAD3 [3] and 910 nM on TEAD2 [4].

Consider `COc1ccc(NS(=O)(=O)C2CC2)cc1/C=C/c1ccc(Cl)cc1` [Compound 49, N-[3-[(E)-2-(4-chlorophenyl)vinyl]-4-methoxy-phenyl]cyclopropanesulfonamide], for which the IC50 at TEAD3 [3] came to 1900 nM; at TEAD2 [4], 750 nM.

Regarding `CCOc1ncc(NS(C)(=O)=O)cc1/C=C/C1CCC(F)(F)CC1` [Compound 18, N-[5-[(E)-2-(4,4-difluorocyclohexyl)vinyl]-6-ethoxy-3-pyridyl]methanesulfonamide], the 50% inhibitory concentration (IC50) on TEAD3 [3] worked out at 1200 nM; on TEAD2 [4] it was 1900 nM.

For the molecule `COc1ncc(C(=O)NC(C)CCO)cc1/C=C/c1ccc(Cl)cc1` (single isomer, unassigned) [Compound 19, 5-[(E)-2-(4-chlorophenyl)vinyl]-N-(3-hydroxy-1-methyl-propyl)-6-methoxy-pyridine-3-carboxamide], the values for the IC50 on TEAD3 [3] and at TEAD2 [4] were 1600 nM and 1900 nM, respectively.

As for `COc1cc(F)c(NS(C)(=O)=O)cc1-c1ccc(C(C)C)cc1` [Compound 12, N-[2-fluoro-5-(4-isopropylphenyl)-4-methoxy-phenyl]methanesulfonamide], the IC50 on TEAD3 [3] is 860 nM; at TEAD2 [4] it was 590 nM.

With `CNC(=O)Cc1cccc(CNC(=O)c2cnc(OC)c(/C=C/C3CCC(F)(F)CC3)c2)c1` [Compound 54, (E)-5-(2-(4,4-difluorocyclohexyl)vinyl)-6-methoxy-N-(3-(2-(methylamino)-2-oxoethyl)benzyl)nicotinamide], the 50% inhibitory concentration (IC50) at TEAD4 was 224 nM; on TEAD2 [1], 146 nM; at TEAD3 [2] it was 4000 nM; against TEAD1, 318 nM.

For the molecule `COc1ccc(NS(C)(=O)=O)cc1C1CC1C1CCCCC1` (single isomer, unassigned) [Compound 1B, N-(3-(2-Cyclohexylcyclopropyl)-4-methoxyphenyl)methanesulfonamide], the concentration for half-maximal inhibition (IC50) at TEAD3 [3] turned out to be 1800 nM; on TEAD2 [4], 1000 nM.

As to `CNC(=O)Cc1cccc(CNC(=O)c2cc(/C=C/C3CCC(F)(F)CC3)c(OC)cn2)c1` [Compound 55, (E)-4-(2-(4,4-Difluorocyclohexyl)vinyl)-5-methoxy-N-(3-(2-(methylamino)-2-oxoethyl)benzyl)picolinamide], the IC50 against TEAD4 was found to be 73 nM; at TEAD2 [1] it was 89 nM; against TEAD3 [2], 230 nM; against TEAD1, 198 nM.

Consider `COc1ccc(C(=O)NC(C)C)cc1[C@H]1C[C@H](c2ccc(Cl)cc2)C1` (single isomer, unassigned) [Compound 9A], for which the concentration for half-maximal inhibition (IC50) was determined as 1600 nM at TEAD3 [3] and 780 nM at TEAD2 [4].

As to `COc1ncc(NS(C)(=O)=O)cc1/C=C/CC(C)C` [Compound 15, N-[6-methoxy-5-[(E)-4-methylpent-1-enyl]-3-pyridyl]methanesulfonamide], the IC50 on TEAD3 [3] turned out to be 2000 nM; at TEAD2 [4] it was 1200 nM.

Regarding `COc1ccc(NS(C)(=O)=O)cc1[C@H]1C[C@H](c2cccc(F)c2)C1` (single isomer, unassigned) [Compound 8A], the values for the IC50 on TEAD3 [3] and on TEAD2 [4] were 1400 nM and 740 nM, respectively.

Consider `CS(=O)(=O)Nc1cnc(C2CC2)c(/C=C/C2CCC(F)(F)CC2)c1` [Compound 52, N-[6-cyclopropyl-5-[(E)-2-(4,4-difluorocyclohexyl)vinyl]-3-pyridyl]methanesulfonamide], for which the IC50 at TEAD3 [3] was found to be 13000 nM; at TEAD2 [4], 1600 nM.

As to `COc1nc(F)c(NS(C)(=O)=O)cc1/C=C/C1CCC(F)(F)CC1` [Compound 39, N-[5-[(E)-2-(4,4-difluorocyclohexyl)vinyl]-2-fluoro-6-methoxy-3-pyridyl]methanesulfonamide], the concentration for half-maximal inhibition (IC50) at TEAD3 [3] was found to be 970 nM; at TEAD2 [4], 550 nM.

As for `CC[C@H](CO)NC(=O)c1cc(/C=C/C2CC3(CC3)C2)c(OC)nn1` [Compound 47, (E)-N-(1-hydroxybutan-2-yl)-6-methoxy-5-(2-(spiro[2.3]hexan-5-yl)vinyl)pyridazine-3-carboxamide], the concentration for half-maximal inhibition (IC50) on TEAD3 [3] worked out at 860 nM; at TEAD2 [4], 1800 nM.

On to `COc1cnc(NS(C)(=O)=O)cc1/C=C/C1(F)CCC(C(F)(F)F)CC1` (stereo not drawn) [Compound 21, N-[4-[(E)-2-[1-fluoro-4-(trifluoromethyl)cyclohexyl]vinyl]-5-methoxy-2-pyridyl]methanesulfonamide], for which the IC50 on TEAD3 [3] was found to be 630 nM; at TEAD2 [4] it was 860 nM.

Turning to `COc1ccc(NS(C)(=O)=O)cc1/C=C/C1CCCCC1` [Compound 27, N-[3-[(E)-2-cyclohexylvinyl]-4-methoxy-phenyl]methanesulfonamide], the half-inhibitory concentration (IC50) was found to be 1200 nM on TEAD3 [3] and 1000 nM at TEAD2 [4].

Take `COc1ccc(C(=O)NC(C)C)cc1-c1ccc(C2CC2)cc1` [Compound 26, 3-(4-cyclopropylphenyl)-N-isopropyl-4-methoxy-benzamide]: the IC50 at TEAD3 [3] is 1700 nM; on TEAD2 [4] it was 2000 nM.

In the case of `COc1ccc(NS(C)(=O)=O)cc1/C=C/C1CCCC1` [Compound 3, N-[3-[(E)-2-cyclopentylvinyl]-4-methoxy-phenyl]methanesulfonamide], the IC50 came to 1800 nM on TEAD3 [3] and 580 nM at TEAD2 [4].

For the molecule `COc1ncc(NS(C)(=O)=O)cc1/C=C/[C@H]1CC[C@H](C(F)(F)F)CC1` [Compound 16, N-[6-methoxy-5-[(E)-2-[4-(trifluoromethyl)cyclohexyl]vinyl]-3-pyridyl]methanesulfonamide], the values for the IC50 at TEAD3 [3] and on TEAD2 [4] were 1200 nM and 690 nM, respectively.

Regarding `COc1ccc(NS(=O)(=O)C2CC2)cc1/C=C/C1CCCCC1` [Compound 28, N-[3-[(E)-2-cyclohexylvinyl]-4-methoxy-phenyl]cyclopropanesulfonamide], the half-inhibitory concentration (IC50) on TEAD3 [3] came out at 1000 nM; on TEAD2 [4], 890 nM.

As for `COc1nnc(NS(C)(=O)=O)cc1/C=C/C1CCC(C(F)(F)F)CC1` (stereo not drawn) [Compound 45, (E)-N-(6-methoxy-5-(2-(4-(trifluoromethyl)cyclohexyl)vinyl)pyridazin-3-yl)methanesulfonamide], the 50% inhibitory concentration (IC50) on TEAD3 [3] was determined as 1700 nM; on TEAD2 [4] it was 1600 nM.

In the case of `COc1ccc(NS(=O)(=O)C2CC2)cc1/C=C/Cc1ccccc1` [Compound 33, N-[4-methoxy-3-[(E)-3-phenylprop-1-enyl]phenyl]cyclopropanesulfonamide], the figures for the half-inhibitory concentration (IC50) at TEAD3 [3] and at TEAD2 [4] were 1200 nM and 840 nM, respectively.

As to `COc1ccc(NS(C)(=O)=O)cc1/C=C/C1CCC(C)CC1` (single isomer, unassigned) [Compound 6A, (E)-N-(4-Methoxy-3-(2-(4-methylcyclohexyl)vinyl)phenyl) methanesulfonamide], the values for the IC50 at TEAD3 [3] and at TEAD2 [4] were 1700 nM and 960 nM, respectively.

With `COc1ccc(NS(C)(=O)=O)cc1/C=C/C1CCC(C)(C)CC1` [Compound 5, N-[3-[(E)-2-(4,4-dimethylcyclohexyl)vinyl]-4-methoxy-phenyl]methanesulfonamide], the IC50 at TEAD3 [3] was 770 nM; at TEAD2 [4], 600 nM.

Regarding `CC[C@H](CO)NC(=O)c1cnc(OC)c(/C=C/C2CCC(F)(F)CC2)c1` (racemic) [Compound 35, 6-methoxy-5-[rac-(E)-2-(4,4-difluorocyclohexyl)vinyl]-N-[rac-(1R)-1-(hydroxymethyl)propyl]pyridine-3-carboxamide], the IC50 stood at 1400 nM on TEAD3 [3] and 1900 nM on TEAD2 [4].

Turning to `COc1ncc(NS(C)(=O)=O)cc1/C=C/C1CC(C(F)(F)F)C1` (racemic) [Compound 37, N-[6-methoxy-5-[rac-(E)-2-[3-(trifluoromethyl)cyclobutyl]vinyl]-3-pyridyl]methanesulfonamide], the half-inhibitory concentration (IC50) turned out to be 1300 nM at TEAD3 [3] and 750 nM at TEAD2 [4].

Consider `COc1ccc(C(=O)NC(C)C)cc1/C=C/Cc1ccccc1` [Compound 30, N-isopropyl-4-methoxy-3-[(E)-3-phenylprop-1-enyl]benzamide], for which the half-inhibitory concentration (IC50) amounted to 620 nM on TEAD3 [3] and 720 nM on TEAD2 [4].

On to `C=CS(=O)(=O)Nc1ccc(OC)c(/C=C/c2ccc(Cl)cc2)c1` [Compound 34, N-[3-[(E)-2-(4-chlorophenyl)vinyl]-4-methoxy-phenyl]ethenesulfonamide], for which the IC50 on TEAD3 [3] stood at 1200 nM; on TEAD2 [4], 960 nM.
